Measurements from patent US12258370B2, “Betulastatin compounds” (Arizona Board of Regents on behalf of Arizona State …, priority 2017, dated 2025).
Values after ≈ are worked out from the molar mass of the structure shown.

Key:
Type in all cases: cell-based
[1] = system: BXPC-3 (pancreas); test: Sulforhodamine B human cancer cell growth inhibition, BXPC-3; settings: BXPC-3 pancreas cell line, compounds in DMSO, 48 h; for IC50: Homo sapiens, read-out: Gl50 Growth Inhibition, XPC-3
Protocol: (§1) Cancer Cell Line Procedures. Inhibition of human cancer cell growth was assessed using the standard sulforhodamine B assay of the U.S. National Cancer Institute, as previously described.^15 To begin, cells in a 5% fetal bovine serum/RPMI1640 medium were inoculated in 96-well plates and incubated for 24 h. Next, serial dilutions of the compounds were added. After 48 h, the plates were fixed with trichloroacetic acid, stained with sulforhodamine B, and read with an automated microplate reader.

[2] = system: MCF-7 (breast); test: Sulforhodamine B human cancer cell growth inhibition, MCF-7; settings: compounds in DMSO, 48 h; for IC50: Homo sapiens, MCF7, MCF-7 breast cell line, read-out: Gl50 Growth Inhibition, MCF-7; for Gl50 Growth Inhibition, MCF-7: MCF-7 breast cell line
Protocol: as §1

[3] = system: SF-268 (CNS); test: Sulforhodamine B human cancer cell growth inhibition, SF-268; settings: SF-268 CNS cell line, compounds in DMSO, 48 h; for IC50: Homo sapiens, read-out: Gl50 Growth Inhibition, SF-268
Protocol: as §1

[4] = system: NCI-H460 (lung); test: Sulforhodamine B human cancer cell growth inhibition, NCI-H460; settings: NCI-H460 lung cell line, compounds in DMSO, 48 h; for IC50: Homo sapiens, read-out: Gl50 Growth Inhibition, NCI-H460
Protocol: as §1

[5] = system: KM20L2 (colon); test: Sulforhodamine B human cancer cell growth inhibition, KM20L2; settings: compounds in DMSO, 48 h; for IC50: Homo sapiens, KM-20L2, KM20L2 colon cell line, read-out: Gl50 Growth Inhibition, KM20L2; for Gl50 Growth Inhibition, KM20L2: KM20L2 colon cell line
Protocol: as §1

[6] = system: DU-145 (prostate); test: Sulforhodamine B human cancer cell growth inhibition, DU-145; settings: DU-145 prostate cell line, compounds in DMSO, 48 h; for IC50: Homo sapiens, read-out: Gl50 Growth Inhibition, DU-145
Protocol: as §1

Row | SMILES | IC50 [1] [µg/mL] | IC50 [2] [µg/mL] | IC50 [3] [µg/mL] | IC50 [4] [µg/mL] | IC50 [5] [µg/mL] | IC50 [6] [µg/mL] | Gl50 Growth Inhibition, XPC-3 [1] [µg/mL] | Gl50 Growth Inhibition, MCF-7 [2] [µg/mL] | Gl50 Growth Inhibition, SF-268 [3] [µg/mL] | Gl50 Growth Inhibition, NCI-H460 [4] [µg/mL] | Gl50 Growth Inhibition, KM20L2 [5] [µg/mL] | Gl50 Growth Inhibition, DU-145 [6] [µg/mL]
1 | C=C(C)[C@@H]1CC[C@]2(CO)CC[C@]3(C)[C@H](CC[C@@H]4[C@@]5(C)CC[C@H](O)C(C)(C)[C@@H]5CC[C@]43C)[C@@H]12 [Betulin, betulin, reference compound] | 9.3 (≈ 21 µM) | > 10 | > 10 | 7.4 (≈ 16.7 µM) | > 10 | > 10 |  |  |  |  |  | 
2 | C=C(CNC(=O)[C@H](C)[C@@H](OC)[C@@H]1CCCN1C(=O)OC(C)(C)C)[C@@H]1CC[C@]2(CO)CC[C@]3(C)[C@H](CC[C@@H]4[C@@]5(C)CC[C@H](O)C(C)(C)[C@@H]5CC[C@]43C)[C@@H]12 [Compound 15a, 30-N-(Boc-dap)-betulin] |  |  |  |  |  |  | >10 | 9.0 | >10 | >10 | >10 | >10
3 | C=C(C)[C@@H]1CC[C@]2(CN)CC[C@]3(C)C(CCC4[C@@]5(C)CC[C@H](OC(C)=O)C(C)(C)C5CC[C@]43C)C12 (stereo partly drawn) [Compound 3, 3-O-Acetyl-28-aminobetulin] | 1.9 (≈ 3.93 µM) | 1.8 (≈ 3.72 µM) | 1.8 (≈ 3.72 µM) | 1.9 (≈ 3.93 µM) | 1.9 (≈ 3.93 µM) | 1.8 (≈ 3.72 µM) |  |  |  |  |  | 
4 | C=C(C)[C@@H]1CC[C@]2(COC(C)=O)CC[C@]3(C)C(CCC4[C@@]5(C)CC/C(=N/O)C(C)(C)[C@@H]5CC[C@]43C)[C@@H]12 (stereo partly drawn) [Compound 8, 3-Oxime-28-O-acetyl-betulin] | 10.4 (≈ 20.9 µM) | 5.9 (≈ 11.9 µM) | > 10 | > 10 | 14.1 (≈ 28.3 µM) | > 10 |  |  |  |  |  | 
5 | C=C(CN=[N+]=[N-])[C@@H]1CC[C@]2(COC(C)=O)CC[C@]3(C)C(CCC4[C@@]5(C)CC[C@H](OC(C)=O)C(C)(C)[C@@H]5CC[C@]43C)[C@@H]12 (stereo partly drawn) [Compound 13, 3,28-Di-O-acetyl-30-azido-betulin] | > 10 | > 10 | > 10 | > 10 | > 10 | > 10 |  |  |  |  |  | 
6 | C=C(C)[C@@H]1CC[C@]2(C=O)CC[C@]3(C)[C@H](CC[C@@H]4[C@@]5(C)CC[C@H](OC(C)=O)C(C)(C)[C@@H]5CC[C@]43C)[C@@H]12 [Compound 1, 3-O-Acetyl-28-betulinal] |  |  |  |  |  |  | >10 | >10 | >10 | >10 | >10 | >10
7 | C=C(C)[C@@H]1CC[C@]2(/C=N/O)CC[C@]3(C)[C@H](CC[C@@H]4[C@@]5(C)CC[C@H](OC(C)=O)C(C)(C)[C@@H]5CC[C@]43C)[C@@H]12 [Compound 2, 3-O-Acetyl-28-oxime-betulin] |  |  |  |  |  |  | 15.5 | 4.5 | 13.2 | 4.1 | 5.1 | >10
8 | C=C(CBr)[C@@H]1CC[C@]2(COC(C)=O)CC[C@]3(C)[C@H](CC[C@@H]4[C@@]5(C)CC[C@H](OC(C)=O)C(C)(C)[C@@H]5CC[C@]43C)[C@@H]12 [Compound 12, 3,28-Di-O-acetyl-30-bromo-betulin] |  |  |  |  |  |  | >10 | >10 | >10 | >10 | >10 | >10
